Key:
Conditions in all cases: 4e 0.1 µM, HL60 lysate
[1] = biological target: T1, EphA3 (Homo sapiens, UniProt P29320); assay: PamChip tyrosine kinase microarray, EphA3; type: biochemical
T1 construct: endogenous in cells; host or cells: HL60 lysate
T1 sequence (P29320 21-983): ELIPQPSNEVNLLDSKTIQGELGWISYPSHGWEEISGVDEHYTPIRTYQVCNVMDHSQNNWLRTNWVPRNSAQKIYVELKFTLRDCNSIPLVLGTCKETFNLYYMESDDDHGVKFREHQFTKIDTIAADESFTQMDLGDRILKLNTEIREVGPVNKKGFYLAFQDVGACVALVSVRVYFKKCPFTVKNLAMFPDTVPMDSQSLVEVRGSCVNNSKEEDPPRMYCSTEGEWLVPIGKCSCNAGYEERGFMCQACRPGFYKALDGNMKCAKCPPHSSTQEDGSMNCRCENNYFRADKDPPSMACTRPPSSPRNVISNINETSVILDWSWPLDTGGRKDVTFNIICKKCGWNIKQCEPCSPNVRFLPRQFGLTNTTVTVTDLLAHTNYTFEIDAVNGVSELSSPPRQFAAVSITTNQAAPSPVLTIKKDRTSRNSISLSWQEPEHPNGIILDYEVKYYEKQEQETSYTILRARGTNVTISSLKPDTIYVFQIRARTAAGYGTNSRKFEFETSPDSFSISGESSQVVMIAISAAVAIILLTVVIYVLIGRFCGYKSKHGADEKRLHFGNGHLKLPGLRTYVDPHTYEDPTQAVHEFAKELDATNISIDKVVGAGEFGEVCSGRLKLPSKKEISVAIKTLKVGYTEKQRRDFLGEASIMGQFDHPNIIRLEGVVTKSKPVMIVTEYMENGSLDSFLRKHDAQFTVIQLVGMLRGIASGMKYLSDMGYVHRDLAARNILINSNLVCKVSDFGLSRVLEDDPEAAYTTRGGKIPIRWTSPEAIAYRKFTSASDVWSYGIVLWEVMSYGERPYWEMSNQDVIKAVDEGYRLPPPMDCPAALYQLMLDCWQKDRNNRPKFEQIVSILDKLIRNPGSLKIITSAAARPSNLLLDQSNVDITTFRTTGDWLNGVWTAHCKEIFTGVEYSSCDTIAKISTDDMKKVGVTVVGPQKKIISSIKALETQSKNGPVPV
Experimental: (§1) The changes in kinase activities induced by treatment with 4e were monitored within the HL60 cell lines using PamGene’s (Hertogenbosch, Netherlands) PamChip® peptide microarray profiler, which quantifies the activities of 144 tyrosine kinases (YK) ([29], [30]) (Figure 7). Results are provided as a log fold change (LFC) heatmap and Mean Kinase Statistic. From the LFC it is apparent that compound 4e, at a concentration of 0.1 µM, induced sizable changes to the activity of several kinases within the cell signaling YK profile (Figure 7A).
(§2) An Upstream Kinase tool was used to generate a putative list of kinases responsible for phosphorylating the phospho-sites on the PamChip (Figure 7B) ([31]). It is an interpretation and is highly dependent on the contents of the underlying phosphorylation databases. A Kinase Score was used for ranking kinases based on their significance and specificity in terms of the set of peptides used for the corresponding kinase. Kinase Statistics indicates the overall change of the peptide set that represents the kinase. Kinase statistics value <0 indicates lower kinase activity in the compound spiked lysate and vice versa ([32], [33]). Table 5 lists the 20 most changed kinases within treated HL60 cell lysates by 0.1 μM 4e, ranked according to their Kinase Score.
(§3) The compound 4e was spiked into HL60 cell lysate at different concentrations (0.001, 0.01, 0.1, 1, 10 and 50 μM). In addition, DMSO was also spiked in HL60 lysate at low concentration (2% v/v) as control. Samples were profiled on PamGene’s Tyrosine Kinase (PTK) arrays in technical replicates, covering a total of 196 phosphorylation sites. Frozen HL60 cultured cell pellet was sent to PamGene. At PamGene, cells were lysed using a lysis buffer and proteases inhibitors cocktail. Protein concentration was measured using standard Bradford assay as per PamGene SOPs. These lysates were further used for generating the PTK activity profiles. For spiking, 4e was received as powder form and dissolved in DMSO at PamGene facility followed by storing at -20°C in small aliquots. PamGene used its in-house bioinformatics toolbox in combination with other methods to generate hypotheses of signaling pathways.

[2] = tested on: TXK; assay: PamChip tyrosine kinase microarray, TXK; type: biochemical, human
Experimental: as §1, §2, §3

[3] = tested on: Src; assay: PamChip tyrosine kinase microarray, Src; type: biochemical, human
Experimental: as §1, §2
The two multiple-kinase tests (PamChip and Phosphokinase Profiler) provided strong evidence of very minor involvement of Src in the cellular activities of 4e. However, the question must be raised about the effect of the 4e on other SRC family kinase (SFK). To address this point, we must highlight that both R&D phosphokinase profiler and PamChip feature Yes, Fgr, Lyn, Lck and Src while Fyn, Hck, Blk and Frk activities are tested in the PamChip only. The signals of SFKs in the R&D Phosphokinase Profiler were too weak to detect in both untreated (control) and 4e-treated HL60 cells. In PamChip assay, most of SFK’s were not ranked in the top 20 affected kinases (Table 5). In addition, their Specificity Score were very low (Table 6) indicating their marginal importance to the cell killing activities of 4e. Fgr kinase which ranked 7th in the list (Table 5) was the only SFK member that seems to be affected by the compound, albeit with low Specificity Score (1.03).
The compound 4e was spiked into HL60 cell lysate at different concentrations (0.001, 0.01, 0.1, 1, 10 and 50 μM). In addition, DMSO was also spiked in HL60 lysate at low concentration (2% v/v) as control. Samples were profiled on PamGene’s Tyrosine Kinase (PTK) arrays in technical replicates, covering a total of 196 phosphorylation sites. Frozen HL60 cultured cell pellet was sent to PamGene. […] Protein concentration was measured using standard Bradford assay as per PamGene SOPs. […]

**Q.** `O=C(Cc1ccc(NC(=O)c2cccc(Cl)c2)cc1)NCc1ccccc1` [Compound 4e, N-(4-(2-(benzylamino)-2-oxoethyl)phenyl)-3-chlorobenzamide] was tested. Which “Mean Final Score” value [1] did it give?
**A.** The value was 1.9564.

**Q.** What about the “Mean Kinase Statistic” value [1] of the same molecule?
**A.** The value was -0.6074.

**Q.** And the “Mean Significance Score” value [1]?
**A.** Its value is 1.4547.

**Q.** What about the “Mean Specificity Score” value [1] of the same molecule?
**A.** Its value is 0.5017.

**Q.** What about the “Mean Final Score” value [2] of the same molecule?
**A.** Its value is 1.9145.

**Q.** What about the “Mean Kinase Statistic” value [2] of the same molecule?
**A.** Its value is -0.5527.

**Q.** What about the “Mean Significance Score” value [2] of the same molecule?
**A.** The value was 1.2373.

**Q.** And the “Mean Specificity Score” value [2]?
**A.** Its value is 0.6772.

**Q.** And the “Mean Final Score” value [3]?
**A.** Its value is 0.7589.

**Q.** And the “Mean Kinase Statistic” value [3]?
**A.** The value was -0.3527.

**Q.** What about the “Mean Significance Score” value [3] of the same molecule?
**A.** The value was 0.7353.

**Q.** And the “Mean Specificity Score” value [3]?
**A.** Its value is 0.0236.
